In BindingDB's records for doi:10.1021/jm00392a014 (1987):

target: Cytosol aminopeptidase (Sus scrofa) (UniProt P28839); assay: Compound was tested for inhibition of Leucine aminopeptidase isolated from porcine kidney; Inhibitor exhibits slow-binding behavior(k on <=1000Me-1Se-1)
Sequence (P28839 whole entry, looked up): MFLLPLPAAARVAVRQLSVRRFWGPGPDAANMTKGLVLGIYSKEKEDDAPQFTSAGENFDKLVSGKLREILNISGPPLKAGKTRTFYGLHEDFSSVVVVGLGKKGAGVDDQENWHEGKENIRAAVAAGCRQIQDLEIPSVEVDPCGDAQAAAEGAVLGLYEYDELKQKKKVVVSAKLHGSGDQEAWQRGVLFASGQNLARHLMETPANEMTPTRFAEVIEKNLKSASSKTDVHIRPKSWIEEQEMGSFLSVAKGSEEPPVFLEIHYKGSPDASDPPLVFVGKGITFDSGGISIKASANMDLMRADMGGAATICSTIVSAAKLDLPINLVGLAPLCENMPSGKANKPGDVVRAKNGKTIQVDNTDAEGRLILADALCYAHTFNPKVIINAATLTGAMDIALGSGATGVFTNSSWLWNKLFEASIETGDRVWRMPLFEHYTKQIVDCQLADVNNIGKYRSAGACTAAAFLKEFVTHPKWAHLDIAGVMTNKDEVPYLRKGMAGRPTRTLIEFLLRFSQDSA

Row | SMILES | Ki
1 | CC(C)CCP(=O)(O)O [(3-Methyl-butyl)-phosphonic acid] | 775 µM
2 | CC(C)CCN [3-Methyl-butylamine] | > 50000 µM
3 | N[C@H](Cc1ccccc1)P(=O)(O)O [(S)-1-Ammonium-2-phenyl-ethanephosphonic acid anion] | 15.4 µM
4 | N[C@@H](Cc1ccccc1)P(=O)(O)O [[(1R)-1-amino-2-phenylethyl]phosphonic acid] | 0.42 µM
5 | COP(=O)(C(=O)N[C@@H](CC(C)C)C(=O)O)C(N)CC(C)C (stereo partly drawn) [2-(1-Ammonium-3-methylbutylmethoxyphosphorylcarbonylamino)-4-methyl-(2S)-pentanoate] | 1650 µM
6 | COP(=O)(O)C(N)Cc1ccccc1 (centres undefined) [(1-Ammonium-2-phenyl-ethyl)-phosphonic acid monomethyl ester] | 43 µM
7 | CC(C)CC(N)P(N)(=O)C(=O)N[C@@H](CC(C)C)C(=O)O (stereo partly drawn) [1-[amino({[(1S)-1-carboxylateanion-3-methylbutyl]amino}carbonyl)phosphoryl]-3-methylbutan-1-aminium] | 40 µM
8 | COP(=O)(O)C(N)CC(C)C (centres undefined) [(1-Ammonium-3-methyl-butyl)-phosphonic acid monomethyl ester] | 320 µM
9 | C[C@H](N)P(=O)(O)O [1-Ammonium-ethanephosphonic acid anion] | 240 µM
10 | NCP(=O)(O)O [Ammonium-methanephosphonic acid anion] | 1040 µM
11 | CCCCCC(N)P(=O)(O)O (centres undefined) [1-aminohexylphosphonic acid] | 1 µM

target: not listed separately; assay: as above

Row | SMILES | Ki
12 | CCC(N)P(=O)(O)O (centres undefined) [1-aminopropylphosphonic acid] | 3.6 µM
13 | CCCCCCCC(N)P(=O)(O)O (centres undefined) [1-Ammonium-octane-1-phosphonic acid anion] | 0.47 µM
14 | CC(C)C(N)P(=O)(O)O (centres undefined) [1-amino-2-methylpropylphosphonic acid] | 1.2 µM
